The text below walks through data of ChEMBL document CHEMBL5365465, “Oxetanes in Drug Discovery Campaigns” (J Med Chem, 2023).

The target of series [1] is T1, Leucine-rich repeat serine/threonine-protein kinase 2 (Homo sapiens, UniProt Q5S007). Put plainly: Inhibition of LRRK2 in human PBMCs assessed as reduction in […] phosphorylation.
Series [2] addresses Histone-lysine N-methyltransferase EZH2 (Homo sapiens, UniProt Q15910). Put plainly: Inhibition of EZH2 (unknown origin).
Series [3] deals with Platelet-derived growth factor receptor alpha (Homo sapiens, UniProt P16234, D842V). Put plainly: Inhibition of PDGFRalpha D842V mutant (unknown origin).
Series [4] addresses Mast/stem cell growth factor receptor Kit (Homo sapiens, UniProt P10721, D816V). Put plainly: Inhibition of KIT D816V mutant (unknown origin).
The target in series [5] is T1, Leucine-rich repeat serine/threonine-protein kinase 2. Put plainly: Inhibition of LRRK2 (unknown origin).
The target in series [6] is Protease (Human immunodeficiency virus 1, UniProt Q9YQ12). Put plainly: Inhibition of HIV protease.
Series [7] can be described thus: Metabolic stability in human liver microsomes assessed as intrinsic clearance. It is filed as ADME, Microsome. On the technique in general: Liver microsomes are a subcellular fraction often used to study metabolism.
Series [8] is described as follows: Aqueous solubility of compound at pH 2. The format is physicochemical.

Broadly, the IC50 is the concentration at which inhibition is half-maximal. One may read the EC50 as the concentration giving half of the maximal effect. One may read the solubility as the dissolved amount per volume that the medium holds. Read a low solubility as little dissolved substance.

T1 sequence (Q5S007 whole entry): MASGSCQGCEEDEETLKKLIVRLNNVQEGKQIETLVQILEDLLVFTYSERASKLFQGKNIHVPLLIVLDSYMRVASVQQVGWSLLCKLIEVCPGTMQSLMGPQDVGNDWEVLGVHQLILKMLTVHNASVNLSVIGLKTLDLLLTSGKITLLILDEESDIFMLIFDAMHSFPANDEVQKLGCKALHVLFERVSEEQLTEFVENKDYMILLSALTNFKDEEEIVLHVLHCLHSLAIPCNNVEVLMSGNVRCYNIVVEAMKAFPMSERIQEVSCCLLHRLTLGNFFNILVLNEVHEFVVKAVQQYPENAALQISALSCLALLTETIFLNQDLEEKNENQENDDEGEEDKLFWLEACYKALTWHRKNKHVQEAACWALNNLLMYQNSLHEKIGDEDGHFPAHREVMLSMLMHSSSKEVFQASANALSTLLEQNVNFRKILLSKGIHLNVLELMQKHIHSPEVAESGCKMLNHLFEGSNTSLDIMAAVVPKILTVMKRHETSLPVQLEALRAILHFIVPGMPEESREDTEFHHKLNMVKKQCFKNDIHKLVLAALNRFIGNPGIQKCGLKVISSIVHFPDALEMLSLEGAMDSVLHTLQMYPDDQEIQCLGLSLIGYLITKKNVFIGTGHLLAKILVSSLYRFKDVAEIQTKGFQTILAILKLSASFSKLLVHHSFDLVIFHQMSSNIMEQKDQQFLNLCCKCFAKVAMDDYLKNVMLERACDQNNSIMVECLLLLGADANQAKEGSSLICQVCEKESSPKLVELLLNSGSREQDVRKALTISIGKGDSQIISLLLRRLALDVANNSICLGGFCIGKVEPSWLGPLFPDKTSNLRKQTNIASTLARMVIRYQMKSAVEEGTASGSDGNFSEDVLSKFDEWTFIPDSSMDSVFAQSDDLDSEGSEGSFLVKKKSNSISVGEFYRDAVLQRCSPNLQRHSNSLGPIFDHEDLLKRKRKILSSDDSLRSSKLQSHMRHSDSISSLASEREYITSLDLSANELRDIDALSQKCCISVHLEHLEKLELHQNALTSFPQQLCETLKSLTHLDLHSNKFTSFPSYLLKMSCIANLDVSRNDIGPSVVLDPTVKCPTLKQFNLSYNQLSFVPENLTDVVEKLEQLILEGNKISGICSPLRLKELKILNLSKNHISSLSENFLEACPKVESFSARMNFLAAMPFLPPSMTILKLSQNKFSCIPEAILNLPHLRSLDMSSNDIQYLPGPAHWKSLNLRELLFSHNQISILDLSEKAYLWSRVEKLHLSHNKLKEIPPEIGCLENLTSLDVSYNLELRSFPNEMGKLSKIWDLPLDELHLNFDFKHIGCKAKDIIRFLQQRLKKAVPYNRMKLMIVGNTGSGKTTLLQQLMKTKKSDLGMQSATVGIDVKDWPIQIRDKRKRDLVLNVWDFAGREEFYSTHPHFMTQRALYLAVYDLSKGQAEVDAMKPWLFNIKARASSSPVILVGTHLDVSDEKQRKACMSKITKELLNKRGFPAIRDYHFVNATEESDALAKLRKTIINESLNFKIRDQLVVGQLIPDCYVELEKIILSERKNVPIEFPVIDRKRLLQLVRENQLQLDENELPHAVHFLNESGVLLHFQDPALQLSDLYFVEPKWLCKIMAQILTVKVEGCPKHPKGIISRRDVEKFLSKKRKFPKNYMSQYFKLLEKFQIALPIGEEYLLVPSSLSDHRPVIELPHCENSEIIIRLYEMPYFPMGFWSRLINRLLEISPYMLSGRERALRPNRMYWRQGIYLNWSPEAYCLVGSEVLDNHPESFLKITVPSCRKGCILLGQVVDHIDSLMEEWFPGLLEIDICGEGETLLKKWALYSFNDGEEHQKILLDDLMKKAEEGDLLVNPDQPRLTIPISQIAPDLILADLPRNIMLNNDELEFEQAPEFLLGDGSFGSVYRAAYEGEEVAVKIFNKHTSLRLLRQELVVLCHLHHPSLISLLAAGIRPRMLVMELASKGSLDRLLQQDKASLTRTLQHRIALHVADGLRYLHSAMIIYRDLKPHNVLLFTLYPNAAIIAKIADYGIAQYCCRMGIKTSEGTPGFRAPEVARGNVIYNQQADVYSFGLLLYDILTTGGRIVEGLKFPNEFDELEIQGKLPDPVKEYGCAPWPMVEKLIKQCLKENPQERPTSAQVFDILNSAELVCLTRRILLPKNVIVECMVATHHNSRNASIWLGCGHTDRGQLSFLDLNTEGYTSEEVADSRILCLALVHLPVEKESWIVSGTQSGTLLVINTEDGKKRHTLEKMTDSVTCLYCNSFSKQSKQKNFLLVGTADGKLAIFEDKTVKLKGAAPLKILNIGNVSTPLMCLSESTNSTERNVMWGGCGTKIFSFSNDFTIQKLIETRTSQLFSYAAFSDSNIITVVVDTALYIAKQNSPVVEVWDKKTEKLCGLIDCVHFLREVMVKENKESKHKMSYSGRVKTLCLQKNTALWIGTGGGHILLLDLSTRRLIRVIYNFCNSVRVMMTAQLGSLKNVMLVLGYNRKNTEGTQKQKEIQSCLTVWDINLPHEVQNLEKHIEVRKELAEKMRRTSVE
Histone-lysine N-methyltransferase EZH2, sequence (Q15910 whole entry): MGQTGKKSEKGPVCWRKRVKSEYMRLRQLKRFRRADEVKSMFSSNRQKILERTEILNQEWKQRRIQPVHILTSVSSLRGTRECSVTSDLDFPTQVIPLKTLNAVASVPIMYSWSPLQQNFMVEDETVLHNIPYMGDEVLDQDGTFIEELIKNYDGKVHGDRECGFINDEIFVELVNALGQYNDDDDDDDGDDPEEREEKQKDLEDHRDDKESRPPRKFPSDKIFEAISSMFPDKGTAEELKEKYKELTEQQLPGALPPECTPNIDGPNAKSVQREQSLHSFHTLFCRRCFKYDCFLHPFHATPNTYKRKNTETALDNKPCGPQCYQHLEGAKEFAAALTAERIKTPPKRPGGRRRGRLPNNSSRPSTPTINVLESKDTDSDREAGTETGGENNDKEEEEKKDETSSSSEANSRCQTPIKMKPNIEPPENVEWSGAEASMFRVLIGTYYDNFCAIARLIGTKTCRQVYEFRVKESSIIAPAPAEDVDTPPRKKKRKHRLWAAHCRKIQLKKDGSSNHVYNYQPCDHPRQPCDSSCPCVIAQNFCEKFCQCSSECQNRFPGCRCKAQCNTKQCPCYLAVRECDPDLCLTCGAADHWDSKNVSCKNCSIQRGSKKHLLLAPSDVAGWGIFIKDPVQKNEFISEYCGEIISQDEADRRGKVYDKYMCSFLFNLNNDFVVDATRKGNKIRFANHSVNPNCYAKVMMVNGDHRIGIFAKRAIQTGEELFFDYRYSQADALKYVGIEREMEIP
Protease, sequence (Q9YQ12 whole entry): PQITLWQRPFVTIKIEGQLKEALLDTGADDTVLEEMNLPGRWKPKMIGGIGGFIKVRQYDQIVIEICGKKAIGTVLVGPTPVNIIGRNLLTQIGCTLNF
Mast/stem cell growth factor receptor Kit, sequence (P10721 26-976 D816V limits assumed): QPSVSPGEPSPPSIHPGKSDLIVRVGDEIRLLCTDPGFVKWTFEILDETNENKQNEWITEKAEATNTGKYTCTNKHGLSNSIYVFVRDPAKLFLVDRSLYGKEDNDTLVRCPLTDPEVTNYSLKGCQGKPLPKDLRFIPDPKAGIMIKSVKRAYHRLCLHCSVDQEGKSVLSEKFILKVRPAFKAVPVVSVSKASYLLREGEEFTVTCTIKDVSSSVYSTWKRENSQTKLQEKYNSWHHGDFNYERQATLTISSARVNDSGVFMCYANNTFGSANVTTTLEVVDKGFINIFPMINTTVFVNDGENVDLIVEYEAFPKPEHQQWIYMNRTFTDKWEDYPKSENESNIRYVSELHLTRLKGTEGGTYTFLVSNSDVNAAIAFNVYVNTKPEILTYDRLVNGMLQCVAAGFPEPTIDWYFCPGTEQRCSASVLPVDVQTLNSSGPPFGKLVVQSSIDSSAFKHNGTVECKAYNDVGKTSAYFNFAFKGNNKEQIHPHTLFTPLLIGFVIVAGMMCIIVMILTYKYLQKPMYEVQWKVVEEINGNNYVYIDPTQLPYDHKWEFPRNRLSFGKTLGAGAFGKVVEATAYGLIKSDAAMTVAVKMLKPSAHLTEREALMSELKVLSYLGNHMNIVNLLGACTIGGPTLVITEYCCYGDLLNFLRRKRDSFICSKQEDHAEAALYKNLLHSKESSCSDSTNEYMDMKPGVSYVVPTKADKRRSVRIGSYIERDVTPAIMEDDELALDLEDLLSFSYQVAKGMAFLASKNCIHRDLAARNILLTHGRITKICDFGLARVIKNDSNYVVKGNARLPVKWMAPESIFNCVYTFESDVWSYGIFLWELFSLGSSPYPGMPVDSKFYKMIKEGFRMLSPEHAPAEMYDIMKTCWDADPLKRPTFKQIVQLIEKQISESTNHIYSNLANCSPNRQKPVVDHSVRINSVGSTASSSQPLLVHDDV

Take `O=C1NCCCOc2ccc3[nH]nc(c3c2)-c2cc(cc(N3CCC4(COC4)C3)c2)CO1`: the IC50 in series [1] is less than 10 nM.
`Cc1ccc2ccc(N[C@H]3CC[C@H](CNc4ncc(C(F)(F)C(=O)NC5COC5)cn4)CC3)nc2c1Cl` gave an IC50 in series [2] of less than 10 nM.
Consider `C[C@](N)(c1ccc(F)cc1)c1cnc(N2CCN(c3ncnn4cc(-c5cnn(CC6COC6)c5)cc34)CC2)nc1`, for which the IC50 in series [3] and in series [4] was less than 4.5 nM in each case.
Turning to `CC(C)(C)Cn1cc(Nc2ncc3c(Cl)c(N4CCN(C5(C)COC5)CC4)ccc3n2)cn1`, in series [5], half-maximal inhibition (IC50) was put at 9.7 nM.
In series [6], `COC(=O)N[C@H](C(=O)N[C@@H](Cc1ccc(C#Cc2ccc(N3CC4CCC(C3)N4C3COC3)nc2)cc1)[C@@H](O)CN(Cc1c(F)cc(-c2ccn(C(F)F)n2)cc1F)NC(=O)[C@@H](NC(=O)OC)C(C)(C)C(F)(F)F)C(C)(C)C(F)(F)F` yielded a concentration for a half-maximal effect (EC50) of 4.8 nM.
In the case of `c1cn2cc(-c3ccc4cn[nH]c4c3)nc(Nc3ccc(N4CCOCC4)cc3)c2n1` [ENTOSPLETINIB], the CLH in series [7] came to 5.17 mL/min/kg.
For `Nc1cncc(-c2cn3ccnc3c(Nc3ccc(N4CCN(C5COC5)CC4)cc3)n2)n1` [LANRAPLENIB], the solubility in series [8] is greater than 100 µM. Further, the CLH in series [7] is less than 1.83 mL/min/kg.
